Values of other authors as cited in patent publication US20020094316A1, “Polypodal chelants for metallopharmaceuticals” (priority 2001, published 2002).

Experiments:
[1] = compared with MECAM

## O=C(N[C@H]1COC(=O)[C@@H](NC(=O)c2cccc(O)c2O)COC(=O)[C@@H](NC(=O)c2cccc(O)c2O)COC1=O)c1cccc(O)c1O [enterobactin]
[1]
  stability of Fe^3+ complex relative to MECAM: much more stable

## O=C([O-])CN1CCN(CC(=O)[O-])CCN(CC(=O)[O-])CCN(CC(=O)[O-])CC1.[Gd+3] [Gd(DOTA)^−]
In 0.1 M HCl
  half-life: 60.2 h

## O=C([O-])CN(CCN(CC(=O)[O-])CC(=O)[O-])CCN(CC(=O)[O-])CC(=O)[O-].[Gd+3] [Gd(DTPA)^2−]
Acidic conditions
  Kobs (decomposition): 1.2×10^−3 so^−1
